Laboratory results published in ChEMBL document CHEMBL4406914, “Impact of Minor Structural Modifications on Properties of a Series of mTOR Inhibitors” (ACS Med Chem Lett, 2019).
In brackets after ≈: the same amount, converted by molar mass. Activity calls are given as the source filed them. The rule behind the calls is not given here.

Experiments:
[1] = Lipophilicity, ChromlogD of compound at 0.5 mM at pH 6.5 by UPLC-UV analysis; conditions: buffer, pH 6.5, 500 µM
mTORC1 = mTORC1 (Homo sapiens, UniProt P42345); assay: Inhibition of mTORC1 in human A431 cells assessed as S6RP phosphorylation incubated for 3 hrs by HTRF assay; format: cell-based
[2] = biological target: T1, Phosphatidylinositol 3-kinase C2 domain-containing subunit gamma (Homo sapiens) (UniProt O75747); assay: Inhibition of wild-type human partial length PIK3C2G (M1 to I1446 residues) expressed in mammalian expression system at 10 uM by Kinomescan method
T1 sequence (whole entry): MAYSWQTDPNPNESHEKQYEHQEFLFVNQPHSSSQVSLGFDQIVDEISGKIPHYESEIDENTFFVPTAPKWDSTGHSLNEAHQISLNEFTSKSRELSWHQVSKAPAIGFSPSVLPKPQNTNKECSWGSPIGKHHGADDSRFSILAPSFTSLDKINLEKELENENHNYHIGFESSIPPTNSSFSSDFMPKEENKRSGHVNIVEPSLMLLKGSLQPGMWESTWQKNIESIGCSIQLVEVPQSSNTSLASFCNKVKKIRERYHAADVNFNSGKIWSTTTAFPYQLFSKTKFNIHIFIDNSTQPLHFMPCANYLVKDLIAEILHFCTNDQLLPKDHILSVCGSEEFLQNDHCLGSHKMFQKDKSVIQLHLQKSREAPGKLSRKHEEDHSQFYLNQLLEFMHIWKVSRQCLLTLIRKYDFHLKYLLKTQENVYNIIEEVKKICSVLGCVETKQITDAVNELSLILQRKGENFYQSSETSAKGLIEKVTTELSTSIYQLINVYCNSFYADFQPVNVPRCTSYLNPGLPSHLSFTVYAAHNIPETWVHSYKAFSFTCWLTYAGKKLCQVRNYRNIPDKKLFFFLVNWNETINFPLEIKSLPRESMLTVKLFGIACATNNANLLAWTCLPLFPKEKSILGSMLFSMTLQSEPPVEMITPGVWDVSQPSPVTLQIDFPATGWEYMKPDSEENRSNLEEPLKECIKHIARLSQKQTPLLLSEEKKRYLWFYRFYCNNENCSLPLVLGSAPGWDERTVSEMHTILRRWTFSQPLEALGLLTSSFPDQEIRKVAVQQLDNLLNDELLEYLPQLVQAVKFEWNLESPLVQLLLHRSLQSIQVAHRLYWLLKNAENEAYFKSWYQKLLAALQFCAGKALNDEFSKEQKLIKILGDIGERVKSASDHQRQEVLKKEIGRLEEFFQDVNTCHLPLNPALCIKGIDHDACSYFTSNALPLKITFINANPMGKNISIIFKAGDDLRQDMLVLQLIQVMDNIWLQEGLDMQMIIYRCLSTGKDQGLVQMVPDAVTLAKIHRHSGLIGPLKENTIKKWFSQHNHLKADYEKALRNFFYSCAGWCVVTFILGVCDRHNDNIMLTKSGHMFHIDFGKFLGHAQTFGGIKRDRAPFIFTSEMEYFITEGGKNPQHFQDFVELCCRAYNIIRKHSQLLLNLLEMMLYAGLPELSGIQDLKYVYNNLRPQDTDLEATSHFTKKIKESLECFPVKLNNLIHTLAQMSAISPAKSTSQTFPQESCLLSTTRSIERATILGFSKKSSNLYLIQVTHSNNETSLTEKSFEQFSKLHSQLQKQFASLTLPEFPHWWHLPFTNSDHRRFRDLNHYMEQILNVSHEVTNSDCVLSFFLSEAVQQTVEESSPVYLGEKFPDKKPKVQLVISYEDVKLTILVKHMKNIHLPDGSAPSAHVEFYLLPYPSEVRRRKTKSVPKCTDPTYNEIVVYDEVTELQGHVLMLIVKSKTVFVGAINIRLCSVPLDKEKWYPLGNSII

[3] = Metabolic stability in human liver microsomes assessed as parent compound remaining at 1 uM measured at 15 mins in presence of phase 1 metabolism cofactors by LC-MS/MS analysis; format: ADME, Microsome; conditions: read-out: Stability
[4] = biological target: Phosphatidylinositol 4,5-bisphosphate 3-kinase catalytic subunit gamma isoform (Homo sapiens) (UniProt P48736); assay: Inhibition of wild-type human partial length PIK3CG (S144 to A1102 residues) expressed in mammalian expression system at 10 uM by Kinomescan method
[5] = Hepatic intrinsic clearance in human Hepatocytes assessed per at 1 uM measured upto 90 mins by LC-MS/MS analysis; format: ADME, cell-based, Hepatocyte; conditions: 1.5 h
[6] = biological target: Phosphatidylinositol 4-phosphate 3-kinase C2 domain-containing subunit beta (Homo sapiens) (UniProt O00750); assay: Inhibition of wild-type human partial length PIK3C2B (M1 to L1634 residues) expressed in mammalian expression system at 10 uM by Kinomescan method
[7] = Kinetic aqueous solubility of compound in phosphate buffer at pH 7.4 at 100 uM at 20 degree C shaken for 24 hrs by HPLC analysis; format: physicochemical; conditions: read-out: Kinetic_solubility
[8] = biological target: T2, Phosphatidylinositol 4,5-bisphosphate 3-kinase catalytic subunit delta isoform (Homo sapiens) (UniProt O00329); assay: Inhibition of wild-type human partial length PIK3CD (R108 to Q1044 residues) expressed in mammalian expression system at 10 uM by Kinomescan method
T2 sequence (whole entry): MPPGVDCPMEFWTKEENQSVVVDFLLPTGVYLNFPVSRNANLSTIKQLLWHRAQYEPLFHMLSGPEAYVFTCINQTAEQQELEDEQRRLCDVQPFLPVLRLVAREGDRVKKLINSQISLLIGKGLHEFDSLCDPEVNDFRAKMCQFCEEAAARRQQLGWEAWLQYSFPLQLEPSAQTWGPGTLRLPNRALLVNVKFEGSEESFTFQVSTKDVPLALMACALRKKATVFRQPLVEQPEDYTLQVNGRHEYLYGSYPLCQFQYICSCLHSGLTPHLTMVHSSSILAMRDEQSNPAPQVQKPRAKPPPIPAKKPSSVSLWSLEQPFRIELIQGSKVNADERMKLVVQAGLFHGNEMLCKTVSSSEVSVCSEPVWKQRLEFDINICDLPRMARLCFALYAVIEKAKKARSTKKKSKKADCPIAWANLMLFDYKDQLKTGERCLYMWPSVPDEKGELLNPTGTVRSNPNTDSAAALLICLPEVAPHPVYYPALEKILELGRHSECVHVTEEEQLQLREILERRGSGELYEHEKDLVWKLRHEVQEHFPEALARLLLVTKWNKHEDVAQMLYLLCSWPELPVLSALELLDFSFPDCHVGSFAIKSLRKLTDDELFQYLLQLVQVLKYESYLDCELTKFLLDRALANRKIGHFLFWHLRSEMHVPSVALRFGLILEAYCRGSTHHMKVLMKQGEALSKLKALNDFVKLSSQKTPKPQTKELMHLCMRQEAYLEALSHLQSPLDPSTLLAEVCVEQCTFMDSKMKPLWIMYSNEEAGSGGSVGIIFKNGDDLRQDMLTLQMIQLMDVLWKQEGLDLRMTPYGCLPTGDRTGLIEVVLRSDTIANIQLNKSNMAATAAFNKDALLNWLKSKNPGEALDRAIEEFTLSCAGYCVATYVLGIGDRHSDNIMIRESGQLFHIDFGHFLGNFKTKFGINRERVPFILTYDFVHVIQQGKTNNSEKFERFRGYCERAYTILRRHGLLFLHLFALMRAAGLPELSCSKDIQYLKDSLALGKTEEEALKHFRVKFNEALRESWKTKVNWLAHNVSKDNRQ

[9] = biological target: Serine/threonine-protein kinase mTOR (Homo sapiens, UniProt P42345); assay: Inhibition of human recombinant GST-tagged mTOR catalytic domain (1360 to 2549 residues) expressed in baculovirus expression system using GFP-4E-BP1 peptide as substrate incubated for 1 hr by LanthaScreen assay
[10] = biological target: Phosphatidylinositol 4,5-bisphosphate 3-kinase catalytic subunit beta isoform (Homo sapiens) (UniProt P42338); assay: Inhibition of wild-type human partial length PIK3CB (P118 to S1070 residues) expressed in mammalian expression system at 10 uM by Kinomescan method
mTORC2 = mTORC2 (Homo sapiens, UniProt P42345); assay: Inhibition of mTORC2 in human A431 cells assessed as AKT phosphorylation at S473 residue incubated for 3 hrs by HTRF assay; format: cell-based
[11] = biological target: Phosphatidylinositol 4,5-bisphosphate 3-kinase catalytic subunit alpha isoform (Homo sapiens, UniProt P42336)
Chain of Phosphatidylinositol 4,5-bisphosphate 3-kinase catalytic subunit alpha isoform (P42336 whole entry, canonical isoform): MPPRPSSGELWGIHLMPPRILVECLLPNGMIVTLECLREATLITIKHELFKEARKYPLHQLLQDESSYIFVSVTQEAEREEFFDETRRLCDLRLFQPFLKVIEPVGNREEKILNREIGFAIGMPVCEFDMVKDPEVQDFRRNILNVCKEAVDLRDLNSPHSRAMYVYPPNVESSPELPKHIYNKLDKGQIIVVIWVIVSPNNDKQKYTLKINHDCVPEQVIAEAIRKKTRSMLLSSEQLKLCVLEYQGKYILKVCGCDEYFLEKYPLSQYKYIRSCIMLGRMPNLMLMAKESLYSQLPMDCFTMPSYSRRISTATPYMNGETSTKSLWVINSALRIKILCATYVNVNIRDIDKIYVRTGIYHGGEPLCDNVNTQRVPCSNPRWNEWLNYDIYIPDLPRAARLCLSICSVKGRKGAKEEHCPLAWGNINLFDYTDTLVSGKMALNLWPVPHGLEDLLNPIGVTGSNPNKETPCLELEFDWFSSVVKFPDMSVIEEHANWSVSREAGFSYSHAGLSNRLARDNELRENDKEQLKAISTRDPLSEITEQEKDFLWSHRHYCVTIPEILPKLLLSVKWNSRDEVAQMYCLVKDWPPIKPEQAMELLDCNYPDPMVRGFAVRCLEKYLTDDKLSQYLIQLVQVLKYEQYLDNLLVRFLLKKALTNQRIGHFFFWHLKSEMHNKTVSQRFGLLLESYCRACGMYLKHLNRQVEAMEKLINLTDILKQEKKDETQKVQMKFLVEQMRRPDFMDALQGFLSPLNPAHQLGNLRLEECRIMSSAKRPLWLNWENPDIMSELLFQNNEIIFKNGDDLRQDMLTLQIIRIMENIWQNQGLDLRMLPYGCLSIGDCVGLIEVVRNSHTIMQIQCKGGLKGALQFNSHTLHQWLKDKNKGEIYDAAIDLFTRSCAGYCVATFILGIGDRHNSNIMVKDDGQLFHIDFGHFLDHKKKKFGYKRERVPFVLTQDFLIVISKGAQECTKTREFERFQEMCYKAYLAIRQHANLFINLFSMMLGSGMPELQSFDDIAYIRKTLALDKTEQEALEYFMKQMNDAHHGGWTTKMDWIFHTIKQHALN
Description: Inhibition of PI3Kalpha (unknown origin) using PIP2 as substrate measured after 30 mins by TR-FRET assay

Chain of Phosphatidylinositol 4-phosphate 3-kinase C2 domain-containing subunit beta (Homo sapiens) (O00750 whole entry, the tested form may be a part): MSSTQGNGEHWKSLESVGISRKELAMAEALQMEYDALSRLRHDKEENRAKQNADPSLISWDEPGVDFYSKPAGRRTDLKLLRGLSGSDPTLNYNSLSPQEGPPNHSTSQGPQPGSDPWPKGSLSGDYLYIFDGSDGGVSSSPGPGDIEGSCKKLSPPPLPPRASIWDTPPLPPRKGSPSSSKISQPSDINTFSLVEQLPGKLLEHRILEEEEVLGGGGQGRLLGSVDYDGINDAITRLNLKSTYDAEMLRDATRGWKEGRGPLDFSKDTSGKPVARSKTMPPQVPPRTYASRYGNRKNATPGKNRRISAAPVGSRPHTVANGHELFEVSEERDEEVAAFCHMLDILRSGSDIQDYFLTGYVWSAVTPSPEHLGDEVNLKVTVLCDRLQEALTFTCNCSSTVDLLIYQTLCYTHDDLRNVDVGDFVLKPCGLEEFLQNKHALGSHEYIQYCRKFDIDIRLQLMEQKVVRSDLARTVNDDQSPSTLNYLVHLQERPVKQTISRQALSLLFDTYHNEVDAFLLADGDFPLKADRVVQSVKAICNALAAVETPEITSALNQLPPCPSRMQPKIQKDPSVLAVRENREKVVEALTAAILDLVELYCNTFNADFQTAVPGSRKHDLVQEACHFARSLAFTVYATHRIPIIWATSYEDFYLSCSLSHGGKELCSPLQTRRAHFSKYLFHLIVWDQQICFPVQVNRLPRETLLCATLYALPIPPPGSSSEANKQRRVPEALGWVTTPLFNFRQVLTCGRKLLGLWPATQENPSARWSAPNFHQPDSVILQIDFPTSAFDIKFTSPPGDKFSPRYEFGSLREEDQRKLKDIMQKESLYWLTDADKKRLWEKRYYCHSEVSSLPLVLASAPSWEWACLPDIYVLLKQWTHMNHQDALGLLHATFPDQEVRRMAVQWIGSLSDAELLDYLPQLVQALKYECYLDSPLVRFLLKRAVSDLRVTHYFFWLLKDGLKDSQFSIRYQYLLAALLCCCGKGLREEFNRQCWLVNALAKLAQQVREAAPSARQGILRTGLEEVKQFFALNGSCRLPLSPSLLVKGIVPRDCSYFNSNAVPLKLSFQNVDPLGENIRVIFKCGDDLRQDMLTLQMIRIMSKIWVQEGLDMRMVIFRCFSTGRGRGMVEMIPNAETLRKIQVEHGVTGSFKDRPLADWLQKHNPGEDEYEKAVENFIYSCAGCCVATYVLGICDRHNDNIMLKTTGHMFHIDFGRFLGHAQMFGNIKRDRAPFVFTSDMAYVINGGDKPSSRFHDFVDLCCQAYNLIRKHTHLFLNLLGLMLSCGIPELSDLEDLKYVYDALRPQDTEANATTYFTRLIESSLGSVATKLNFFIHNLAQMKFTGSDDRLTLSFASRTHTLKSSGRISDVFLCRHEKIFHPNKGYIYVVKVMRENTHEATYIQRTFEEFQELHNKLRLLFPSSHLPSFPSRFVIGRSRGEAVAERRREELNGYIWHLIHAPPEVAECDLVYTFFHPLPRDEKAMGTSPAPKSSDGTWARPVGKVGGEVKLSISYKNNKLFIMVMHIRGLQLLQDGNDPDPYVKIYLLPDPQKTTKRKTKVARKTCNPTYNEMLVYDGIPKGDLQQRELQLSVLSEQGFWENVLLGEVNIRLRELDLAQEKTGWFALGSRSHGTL
Chain of Phosphatidylinositol 4,5-bisphosphate 3-kinase catalytic subunit gamma isoform (Homo sapiens) (P48736 whole entry, looked up, the tested form may be a part, canonical isoform): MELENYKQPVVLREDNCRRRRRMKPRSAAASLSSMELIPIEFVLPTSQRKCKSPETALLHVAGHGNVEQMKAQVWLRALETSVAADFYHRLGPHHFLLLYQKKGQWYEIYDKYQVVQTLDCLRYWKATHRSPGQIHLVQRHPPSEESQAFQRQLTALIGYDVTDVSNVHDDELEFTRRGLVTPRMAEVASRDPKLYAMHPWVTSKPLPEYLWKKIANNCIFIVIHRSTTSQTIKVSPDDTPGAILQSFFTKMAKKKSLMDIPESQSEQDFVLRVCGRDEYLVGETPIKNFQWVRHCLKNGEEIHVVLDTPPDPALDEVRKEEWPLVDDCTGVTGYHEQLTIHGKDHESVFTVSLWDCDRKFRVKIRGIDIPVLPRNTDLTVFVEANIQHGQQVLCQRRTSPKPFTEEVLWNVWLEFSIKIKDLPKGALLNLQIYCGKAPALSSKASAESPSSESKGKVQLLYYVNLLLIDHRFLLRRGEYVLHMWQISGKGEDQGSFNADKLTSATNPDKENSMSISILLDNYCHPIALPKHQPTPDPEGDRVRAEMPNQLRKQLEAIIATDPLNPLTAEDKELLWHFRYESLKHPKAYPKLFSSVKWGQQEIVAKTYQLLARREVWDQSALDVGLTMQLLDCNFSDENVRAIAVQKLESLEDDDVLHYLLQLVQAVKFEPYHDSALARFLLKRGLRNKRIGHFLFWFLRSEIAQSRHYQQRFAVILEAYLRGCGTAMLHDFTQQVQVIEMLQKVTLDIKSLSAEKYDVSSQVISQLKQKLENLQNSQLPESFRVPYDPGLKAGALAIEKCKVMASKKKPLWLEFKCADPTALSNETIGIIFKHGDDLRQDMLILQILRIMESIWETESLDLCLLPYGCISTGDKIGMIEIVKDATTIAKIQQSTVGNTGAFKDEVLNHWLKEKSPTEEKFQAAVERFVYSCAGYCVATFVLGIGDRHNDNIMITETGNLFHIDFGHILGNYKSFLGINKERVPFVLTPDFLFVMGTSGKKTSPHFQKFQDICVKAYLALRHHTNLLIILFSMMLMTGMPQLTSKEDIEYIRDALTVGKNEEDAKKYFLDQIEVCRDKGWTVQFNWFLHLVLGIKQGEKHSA
Chain of Phosphatidylinositol 4,5-bisphosphate 3-kinase catalytic subunit beta isoform (Homo sapiens) (P42338 whole entry, looked up, the tested form may be a part, canonical isoform): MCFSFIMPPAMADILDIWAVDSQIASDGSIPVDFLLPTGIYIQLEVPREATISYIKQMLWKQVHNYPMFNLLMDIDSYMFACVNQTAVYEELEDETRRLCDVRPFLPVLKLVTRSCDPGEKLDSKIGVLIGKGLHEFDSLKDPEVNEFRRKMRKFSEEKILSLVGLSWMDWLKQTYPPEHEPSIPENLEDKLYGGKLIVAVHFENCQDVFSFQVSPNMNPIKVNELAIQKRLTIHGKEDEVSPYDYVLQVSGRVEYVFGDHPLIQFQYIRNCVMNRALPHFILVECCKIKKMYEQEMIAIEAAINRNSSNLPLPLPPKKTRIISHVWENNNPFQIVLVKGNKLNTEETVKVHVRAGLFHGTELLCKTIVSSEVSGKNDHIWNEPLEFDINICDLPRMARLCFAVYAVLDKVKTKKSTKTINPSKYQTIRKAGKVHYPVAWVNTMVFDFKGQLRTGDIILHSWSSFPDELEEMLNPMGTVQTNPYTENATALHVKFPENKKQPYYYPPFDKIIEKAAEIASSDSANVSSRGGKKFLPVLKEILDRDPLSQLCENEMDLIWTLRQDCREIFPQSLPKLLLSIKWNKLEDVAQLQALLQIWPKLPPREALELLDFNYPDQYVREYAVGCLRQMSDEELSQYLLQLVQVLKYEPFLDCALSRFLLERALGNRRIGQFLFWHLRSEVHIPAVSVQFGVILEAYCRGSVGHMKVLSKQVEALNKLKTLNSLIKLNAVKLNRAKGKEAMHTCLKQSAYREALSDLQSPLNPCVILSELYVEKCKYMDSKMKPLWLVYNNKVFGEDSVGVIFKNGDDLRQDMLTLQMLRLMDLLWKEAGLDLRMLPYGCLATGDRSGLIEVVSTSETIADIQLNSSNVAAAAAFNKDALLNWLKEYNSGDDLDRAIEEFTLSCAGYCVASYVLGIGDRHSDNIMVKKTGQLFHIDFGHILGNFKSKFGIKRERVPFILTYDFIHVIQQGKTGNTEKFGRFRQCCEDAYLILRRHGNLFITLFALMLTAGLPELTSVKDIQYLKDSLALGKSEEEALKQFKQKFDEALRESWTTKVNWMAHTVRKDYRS

Question: Which ChromlogD6.5 [1] does the source give for `CC(C)n1nc(-c2ccc3oc(N)nc3c2)c2c(=O)[nH]cnc21` here?
Answer: 0.9

Question: What about the IC50 (mTORC1) of the same compound?
Answer: 30 nM

Question: And the inhibition [2]?
Answer: inactive

Question: What about the remaining at 0.25 h, 1 µM [3] of the same compound?
Answer: > 95%

Question: What about the inhibition [4] of the same compound?
Answer: inactive

Question: What about the CLH [5] of the same compound?
Answer: < 5 µL/min

Question: And the inhibition [6]?
Answer: inactive

Question: And the solubility kinetic at 24 h, 100 µM [7]?
Answer: 3 µM (≈ 0.931 µg/mL)

Question: What about the inhibition [8] of the same compound?
Answer: inactive

Question: And the Ki [9]?
Answer: 28 nM

Question: What about the inhibition [10] of the same compound?
Answer: inactive

Question: And the IC50 (mTORC2)?
Answer: 130 nM

Question: And the Ki [11]?
Answer: > 10000 nM
